Assay results published in patent publication US20260297081A1, “COMPOUNDS AND METHODS OF TREATING CANCERS” (Cullgen Inc., priority 2023, published 2026).

Test system: MCF7 cells
Experiment: Anti-proliferation (viability) of MCF7 cells (Table 7, FIG. 2B)
Format: cell-based
Details: Homo sapiens, MCF7, MCF7 cells, 3-6 days, 10-point serial dilution; read-out: GI IC50 in MCF-7

| Structure (SMILES) | IC50 |
| --- | --- |
| CNc1ccc(C(=O)Nc2ccc(N(C)C)nn2)c(NC2CC(C(=O)N3CCC4(CCN(c5ccc(Nc6ncc7c(C)c(C(C)=O)c(=O)n(C8CCCC8)c7n6)nc5)CC4)C3)C2)n1 (centres unmarked) [CPD-381, 2-((3-(8-(6-((6-acetyl-8-cyclopentyl-5-methyl-7-oxo-7,8-dihydropyrido[2,3-d]pyrimidin-2-yl)amino)pyridin-3-yl)-2,8-diazaspiro[4.5]decane-2-carbonyl)cyclobutyl)amino)-N-(6-(dimethylamino)pyridazin-3-yl)-6-(methylamino)nicotinamide] | > 0.1 µM |
| CC(=O)c1c(C)c2cnc(Nc3ccc(N4CCC(NCC(=O)NC5CC(Nc6nc(NC(C)C)ccc6C(=O)Nc6ccc(N(C)C)nn6)C5)CC4)cn3)nc2n(C2CCCC2)c1=O (centres unmarked) [CPD-382, 2-((3-(2-((1-(6-((6-acetyl-8-cyclopentyl-5-methyl-7-oxo-7,8-dihydropyrido[2,3-d]pyrimidin-2-yl)amino)pyridin-3-yl)piperidin-4-yl)amino)acetamido)cyclobutyl)amino)-N-(6-(dimethylamino)pyridazin-3-yl)-6-(isopropylamino)nicotinamide] | 0.05 to 0.1 µM |
| [2H]C([2H])([2H])Nc1ccc(C(=O)Nc2ccc(N(C)C)nn2)c(NC2CC23CCN(C(=O)CC(C)N2CCN(c4ccc(Nc5ncc6c(C)c(C(C)=O)c(=O)n(C7CCCC7)c6n5)nc4)CC2)CC3)n1 (centres unmarked) [CPD-383, 2-((6-(3-(4-(6-((6-acetyl-8-cyclopentyl-5-methyl-7-oxo-7,8-dihydropyrido[2,3-d]pyrimidin-2-yl)amino)pyridin-3-yl)piperazin-1-yl)butanoyl)-6-azaspiro[2.5]octan-1-yl)amino)-N-(6-(dimethylamino)pyridazin-3-yl)-6-((methyl-d3)amino)nicotinamide] | > 0.1 µM |
| CNc1ccc(C(=O)Nc2ccc(N(C)C)nn2)c(NC2CCC(C(=O)N3CCC4(CCN(c5ccc(Nc6ncc7c(C)c(C(C)=O)c(=O)n(C8CCCC8)c7n6)nc5)CC4)C3)CC2)n1 (centres unmarked) [CPD-385, 2-((4-(8-(6-((6-acetyl-8-cyclopentyl-5-methyl-7-oxo-7,8-dihydropyrido[2,3-d]pyrimidin-2-yl)amino)pyridin-3-yl)-2,8-diazaspiro[4.5]decane-2-carbonyl)cyclohexyl)amino)-N-(6-(dimethylamino)pyridazin-3-yl)-6-(methylamino)nicotinamide] | 0.05 to 0.1 µM |
| CC(=O)c1c(C)c2cnc(Nc3ccc(CC4CCN(CC(=O)N5CCC(Nc6nc(NC(C)C)ccc6C(=O)Nc6ccc(N(C)C)nn6)CC5)CC4)cn3)nc2n(C2CCCC2)c1=O [CPD-386, 2-((1-(2-(4-((6-((6-acetyl-8-cyclopentyl-5-methyl-7-oxo-7,8-dihydropyrido[2,3-d]pyrimidin-2-yl)amino)pyridin-3-yl)methyl)piperidin-1-yl)acetyl)piperidin-4-yl)amino)-N-(6-(dimethylamino)pyridazin-3-yl)-6-(isopropylamino)nicotinamide] | > 0.1 µM |
| CC(=O)c1c(C)c2cnc(Nc3ccc(N4CCN(CC(=O)NC(C)(C)C5CC(Nc6nc(NC(C)C)ccc6C(=O)Nc6cc(C)n(C)n6)C5)CC4)cn3)nc2n(C2CCCC2)c1=O (centres unmarked) [CPD-387, 2-((3-(2-(2-(4-(6-((6-acetyl-8-cyclopentyl-5-methyl-7-oxo-7,8-dihydropyrido[2,3-d]pyrimidin-2-yl)amino)pyridin-3-yl)piperazin-1-yl)acetamido)propan-2-yl)cyclobutyl)amino)-N-(1,5-dimethyl-1H-pyrazol-3-yl)-6-(isopropylamino)nicotinamide] | 0.05 to 0.1 µM |
| CNc1ccc(C(=O)Nc2ccc(N(C)C)nn2)c(NC2CC(C(=O)NC3CCC4(CC3)CCN(c3ccc(Nc5ncc6c(C)c(C(C)=O)c(=O)n(C7CCCC7)c6n5)nc3)CC4)C2)n1 (centres unmarked) [CPD-388, 2-((3-((3-(6-((6-acetyl-8-cyclopentyl-5-methyl-7-oxo-7,8-dihydropyrido[2,3-d]pyrimidin-2-yl)amino)pyridin-3-yl)-3-azaspiro[5.5]undecan-9-yl)carbamoyl)cyclobutyl)amino)-N-(6-(dimethylamino)pyridazin-3-yl)-6-(methylamino)nicotinamide] | > 0.1 µM |
| CC(=O)c1c(C)c2cnc(Nc3ccc(C4CCC(NCC(=O)N5CCC(Nc6nc(NC(C)C)ccc6C(=O)Nc6ccc(N(C)C)nn6)CC5)CC4)cn3)nc2n(C2CCCC2)c1=O (centres unmarked) [CPD-389, 2-((1-((4-(6-((6-acetyl-8-cyclopentyl-5-methyl-7-oxo-7,8-dihydropyrido[2,3-d]pyrimidin-2-yl)amino)pyridin-3-yl)cyclohexyl)glycyl)piperidin-4-yl)amino)-N-(6-(dimethylamino)pyridazin-3-yl)-6-(isopropylamino)nicotinamide] | > 0.1 µM |
| CC(=O)c1c(C)c2cnc(Nc3ccc(N4CCC(N5CC(C(=O)N6CCC(Nc7nc(NC(C)C)ccc7C(=O)Nc7ccc(N(C)C)nn7)CC6)C5)CC4)cn3)nc2n(C2CCCC2)c1=O [CPD-390, 2-((1-(1-(1-(6-((6-acetyl-8-cyclopentyl-5-methyl-7-oxo-7,8-dihydropyrido[2,3-d]pyrimidin-2-yl)amino)pyridin-3-yl)piperidin-4-yl)azetidine-3-carbonyl)piperidin-4-yl)amino)-N-(6-(dimethylamino)pyridazin-3-yl)-6-(isopropylamino)nicotinamide] | > 0.1 µM |
| CC(=O)c1c(C)c2cnc(Nc3ccc(N4CCC(N5CC(C(=O)N6CC7(CC(Nc8nc(NC(C)C)ccc8C(=O)Nc8ccc(N(C)C)nn8)C7)C6)C5)CC4)cn3)nc2n(C2CCCC2)c1=O [CPD-391, 2-((2-(1-(1-(6-((6-acetyl-8-cyclopentyl-5-methyl-7-oxo-7,8-dihydropyrido[2,3-d]pyrimidin-2-yl)amino)pyridin-3-yl)piperidin-4-yl)azetidine-3-carbonyl)-2-azaspiro[3.3]heptan-6-yl)amino)-N-(6-(dimethylamino)pyridazin-3-yl)-6-(isopropylamino)nicotinamide] | > 0.1 µM |
| CC(=O)c1c(C)c2cnc(Nc3ccc(CN4CCC(CC(=O)N5CCC(Nc6nc(NC(C)C)ccc6C(=O)Nc6ccc(N(C)C)nn6)CC5)CC4)cn3)nc2n(C2CCCC2)c1=O [CPD-392, 2-((1-(2-(1-((6-((6-acetyl-8-cyclopentyl-5-methyl-7-oxo-7,8-dihydropyrido[2,3-d]pyrimidin-2-yl)amino)pyridin-3-yl)methyl)piperidin-4-yl)acetyl)piperidin-4-yl)amino)-N-(6-(dimethylamino)pyridazin-3-yl)-6-(isopropylamino)nicotinamide] | > 0.1 µM |
| CC(=O)c1c(C)c2cnc(Nc3ccc(N4CCC(N5CC(C(=O)NC6CC7(C6)CC(Nc6nc(NC(C)C)ccc6C(=O)Nc6ccc(N(C)C)nn6)C7)C5)CC4)cn3)nc2n(C2CCCC2)c1=O (centres unmarked) [CPD-393, 2-((6-(1-(1-(6-((6-acetyl-8-cyclopentyl-5-methyl-7-oxo-7,8-dihydropyrido[2,3-d]pyrimidin-2-yl)amino)pyridin-3-yl)piperidin-4-yl)azetidine-3-carboxamido)spiro[3.3]heptan-2-yl)amino)-N-(6-(dimethylamino)pyridazin-3-yl)-6-(isopropylamino)nicotinamide] | 0.05 to 0.1 µM |
| CC(=O)c1c(C)c2cnc(Nc3ccc(N4CCC(N5CCC(C(=O)N6CC(Nc7nc(NC(C)C)ccc7C(=O)Nc7ccc(N(C)C)nn7)C6)C5)CC4)cn3)nc2n(C2CCCC2)c1=O (centres unmarked) [CPD-394, 2-((1-(1-(1-(6-((6-acetyl-8-cyclopentyl-5-methyl-7-oxo-7,8-dihydropyrido[2,3-d]pyrimidin-2-yl)amino)pyridin-3-yl)piperidin-4-yl)pyrrolidine-3-carbonyl)azetidin-3-yl)amino)-N-(6-(dimethylamino)pyridazin-3-yl)-6-(isopropylamino)nicotinamide] | > 0.1 µM |
| CC(=O)c1c(C)c2cnc(Nc3ccc(N4CCC(N5CCC(C(=O)N6CCC(Nc7nc(NC(C)C)ccc7C(=O)Nc7ccc(N(C)C)nn7)C6)C5)CC4)cn3)nc2n(C2CCCC2)c1=O (centres unmarked) [CPD-395, 2-((1-(1-(1-(6-((6-acetyl-8-cyclopentyl-5-methyl-7-oxo-7,8-dihydropyrido[2,3-d]pyrimidin-2-yl)amino)pyridin-3-yl)piperidin-4-yl)pyrrolidine-3-carbonyl)pyrrolidin-3-yl)amino)-N-(6-(dimethylamino)pyridazin-3-yl)-6-(isopropylamino)nicotinamide] | > 0.1 µM |
| CC(=O)c1c(C)c2cnc(Nc3ccc(N4CCC(N5CCC(C(=O)N6CCC(Nc7nc(NC(C)C)ccc7C(=O)Nc7ccc(N(C)C)nn7)CC6)C5)CC4)cn3)nc2n(C2CCCC2)c1=O (centres unmarked) [CPD-396, 2-((1-(1-(1-(6-((6-acetyl-8-cyclopentyl-5-methyl-7-oxo-7,8-dihydropyrido[2,3-d]pyrimidin-2-yl)amino)pyridin-3-yl)piperidin-4-yl)pyrrolidine-3-carbonyl)piperidin-4-yl)amino)-N-(6-(dimethylamino)pyridazin-3-yl)-6-(isopropylamino)nicotinamide] | > 0.1 µM |
| CC(=O)c1c(C)c2cnc(Nc3ccc(N4CCC(N5CCC(C(=O)NC6CC7(C6)CC(Nc6nc(NC(C)C)ccc6C(=O)Nc6ccc(N(C)C)nn6)C7)C5)CC4)cn3)nc2n(C2CCCC2)c1=O (centres unmarked) [CPD-397, 2-((6-(1-(1-(6-((6-acetyl-8-cyclopentyl-5-methyl-7-oxo-7,8-dihydropyrido[2,3-d]pyrimidin-2-yl)amino)pyridin-3-yl)piperidin-4-yl)pyrrolidine-3-carboxamido)spiro[3.3]heptan-2-yl)amino)-N-(6-(dimethylamino)pyridazin-3-yl)-6-(isopropylamino)nicotinamide] | < 0.05 µM |
| CC(=O)c1c(C)c2cnc(Nc3ccc(N4CCC(N5CCC(C(=O)N6CC7(CC(Nc8nc(NC(C)C)ccc8C(=O)Nc8ccc(N(C)C)nn8)C7)C6)C5)CC4)cn3)nc2n(C2CCCC2)c1=O (centres unmarked) [CPD-398, 2-((2-(1-(1-(6-((6-acetyl-8-cyclopentyl-5-methyl-7-oxo-7,8-dihydropyrido[2,3-d]pyrimidin-2-yl)amino)pyridin-3-yl)piperidin-4-yl)pyrrolidine-3-carbonyl)-2-azaspiro[3.3]heptan-6-yl)amino)-N-(6-(dimethylamino)pyridazin-3-yl)-6-(isopropylamino)nicotinamide] | 0.05 to 0.1 µM |
